Data: patent US4175125A, “Method for treating methicillin resistant staphylococcus aureus” (Eli Lilly and Company, priority 1978, dated 1979)
≈ marks a conversion by molar mass, not a printed value. Read-outs that look alike come from different tables or passages of the source. Each block holds one molecule with its values, some of them ahead of it.

Key:
[1] = test system: Staphylococcus aureus cultures; assay: Agar dilution MIC, Example 13 compound vs methicillin resistant Staphylococcus aureus; assay type: cell-based
Excerpt: The table which follows gives the minimum inhibitory concentration (MIC) in micrograms of compound per milliliter of culture (μg/ml), in comparison with similar MIC values for the known antibiotics methicillin, cephalothin and cephaloridine against the same strains of bacteria.

[2] = test system: methicillin-resistant Staphylococcus aureus; assay: Gradient plate test (MIC) against methicillin-resistant Staphylococcus aureus; assay type: cell-based; conditions: Staphylococcus aureus, read-out: minimum inhibitory concentration (MIC)
Experimental: The method used is essentially that described by Bryson and Szybalski in 1952 (Science 116:45-46). The inoculum treatment method used for penicillin resistant Staphylococci was reported by Godzeski et al in Antimicrobial Agents and Chemotherapy, May, 1969, pp. 547-554.
A standard Falcon square plastic petri dish is used. A layer of agar (10 ml.) is poured into one of the square dishes, the dish tipped 5 mm. off the horizontal, and the agar layer allowed to harden in this position. This bottom layer of agar contains the antibiotic, the serum, and/or other material to be tested. The medium is Difco Penassay Agar containing 2 percent agar. We routinely used 4 ml. of human or horse serum for "serum-inactivation" testing. […] Therefore, serum is routinely added only to the bottom layer.
After the bottom, slanted layer of agar medium has hardened, the plate is placed flat and another 10 ml. of medium added and allowed to harden.
The inoculum of resistant Staphylococci, as described, is prepared by diluting the water suspension 1/50 in 0.25 percent agar in sterile water or saline. For Gram negative organisms, an overnight broth culture is diluted 1/50 in the 0.25 percent agar-water. This dilution is thoroughly shaken to evenly suspend the bacteria. To streak the plate, we use a 1 ml. pipet containing an aliquot of the final […] agar dilution. After a little practice, a smooth even stroke of inoculum can be laid down very rapidly. The trick is in the smoothness of the streak--it must be accomplished uniformly and quickly.
After 24 hours incubation at 35°-37° C. the plates are read by simply measuring the length of bacterial growth as a percentage of the entire streak distance which is then converted to the percent of antibiotic concentration in the plate.
Average values of duplicate measurements are calculated and the M.I.C.'s reported are average of 2 streaks on the plate and from 2 to 3 duplicate plates. Eight streaks can be easily placed on each plate. If sharp end points are not obtained, the middle concentration between the beginning of inhibition of the streak to the end of growth is measured. The concentration of the antibiotic under examination is varied from plate to plate in a series as follows: […]
This method of screening penicillins and cephalosporins is quite satisfactory. Control plates containing penicillin and staphcillin or prostaphlin, or other control antibiotic, are used daily for the resistant staphylococcal activity screen. The gradient plate method has shown differences between antibiotics that were not apparent by any other methods of screening. […] We believe that the gradient plate screen is more sensitive to small differences between related antibiotics than other methods and pictures of the plates can provide a permanent record. The method also lends itself readily to modification of specific purposes--e.g., cross gradients.
The compounds listed below are examples of compounds useful in the method of this invention. After the compound name there is given in parentheses, where tested, the minimum inhibitory concentrations (MIC) in micrograms per milliliter (μg/ml) for the compound in the above described gradient plate procedure test against methicillin-resistant Staphylococcus aureus, (in the absence of blood serum/in the presence of 20 percent blood serum).
and pharmaceutically acceptable salts thereof. The abbreviation "s.z." means skip zones.

[3] = in the presence of 20 percent blood serum

SMILES: CC(=O)OCC1=C(C(=O)O)N2C(=O)[C@@H](NC(=O)Cc3cccs3)[C@H]2SC1 [Cephalothin, cephalothin, reference compound]
MIC ([1]; culture 3055 (control), Trypticase Soy Agar with 4.5% NaCl added (5% NaCl)): 0.25 µg/mL (≈ 0.631 µM)
MIC ([1]; culture 3055 (control), Trypticase Soy Agar, 0.5% NaCl): 0.13 µg/mL (≈ 0.328 µM)
MIC ([1]; culture 3130, Trypticase Soy Agar with 4.5% NaCl added (5% NaCl)): 1 µg/mL (≈ 2.52 µM)
MIC ([1]; culture 3130, Trypticase Soy Agar, 0.5% NaCl): 0.5 µg/mL (≈ 1.26 µM)
MIC ([1]; culture 3131, Trypticase Soy Agar with 4.5% NaCl added (5% NaCl)): 1 µg/mL (≈ 2.52 µM)
MIC ([1]; culture 3131, Trypticase Soy Agar, 0.5% NaCl): 0.5 µg/mL (≈ 1.26 µM)
MIC ([1]; culture 3132, Trypticase Soy Agar with 4.5% NaCl added (5% NaCl)): 0.5 µg/mL (≈ 1.26 µM)
MIC ([1]; culture 3132, Trypticase Soy Agar, 0.5% NaCl): 0.5 µg/mL (≈ 1.26 µM)
MIC ([1]; culture 3133, Trypticase Soy Agar with 4.5% NaCl added (5% NaCl)): 0.5 µg/mL (≈ 1.26 µM)
MIC ([1]; culture 3133, Trypticase Soy Agar, 0.5% NaCl): 0.5 µg/mL (≈ 1.26 µM)
MIC ([1]; culture 3134, Trypticase Soy Agar with 4.5% NaCl added (5% NaCl)): 1 µg/mL (≈ 2.52 µM)
MIC ([1]; culture 3134, Trypticase Soy Agar, 0.5% NaCl): 2 µg/mL (≈ 5.04 µM)
MIC ([1]; culture 3135, Trypticase Soy Agar with 4.5% NaCl added (5% NaCl)): 1 µg/mL (≈ 2.52 µM)
MIC ([1]; culture 3135, Trypticase Soy Agar, 0.5% NaCl): 1 µg/mL (≈ 2.52 µM)
MIC ([1]; culture 3136, Trypticase Soy Agar with 4.5% NaCl added (5% NaCl)): 1 µg/mL (≈ 2.52 µM)
MIC ([1]; culture 3136, Trypticase Soy Agar, 0.5% NaCl): 0.5 µg/mL (≈ 1.26 µM)
MIC ([1]; culture 3137, Trypticase Soy Agar with 4.5% NaCl added (5% NaCl)): 1 µg/mL (≈ 2.52 µM)
MIC ([1]; culture 3137, Trypticase Soy Agar, 0.5% NaCl): 2 µg/mL (≈ 5.04 µM)
MIC ([1]; culture 3138, Trypticase Soy Agar with 4.5% NaCl added (5% NaCl)): 2 µg/mL (≈ 5.04 µM)
MIC ([1]; culture 3138, Trypticase Soy Agar, 0.5% NaCl): 1 µg/mL (≈ 2.52 µM)
MIC ([1]; culture 3139, Trypticase Soy Agar with 4.5% NaCl added (5% NaCl)): 0.25 µg/mL (≈ 0.631 µM)
MIC ([1]; culture 3139, Trypticase Soy Agar, 0.5% NaCl): 0.5 µg/mL (≈ 1.26 µM)
MIC ([1]; culture H232 (control), Trypticase Soy Agar with 4.5% NaCl added (5% NaCl)): 0.25 µg/mL (≈ 0.631 µM)
MIC ([1]; culture H232 (control), Trypticase Soy Agar, 0.5% NaCl): 2.5 µg/mL (≈ 6.31 µM)
MIC ([1]; culture Havarmak 1136501, Trypticase Soy Agar with 4.5% NaCl added (5% NaCl)): 1 µg/mL (≈ 2.52 µM)
MIC ([1]; culture Havarmak 1136501, Trypticase Soy Agar, 0.5% NaCl): 1 µg/mL (≈ 2.52 µM)
MIC ([1]; culture S 61, Trypticase Soy Agar with 4.5% NaCl added (5% NaCl)): 1 µg/mL (≈ 2.52 µM)
MIC ([1]; culture S 61, Trypticase Soy Agar, 0.5% NaCl): 1 µg/mL (≈ 2.52 µM)
MIC ([1]; culture Seattle 966, Trypticase Soy Agar with 4.5% NaCl added (5% NaCl)): 0.25 µg/mL (≈ 0.631 µM)
MIC ([1]; culture Seattle 966, Trypticase Soy Agar, 0.5% NaCl): 0.5 µg/mL (≈ 1.26 µM)

MIC ([2]; in the absence of blood serum): 2 µg/mL (≈ 4.07 µM)
MIC [2, 3]: 8.7 µg/mL
SMILES: CC(=O)OCC1=C(C(=O)O)N2C(=O)C(NC(=O)CSc3cc(Cl)cc(Cl)c3)C2SC1 (stereo not shown) [Example 3, 7-(3,5-Dichlorophenylthioacetamido)-cephalosporanic acid]

MIC ([2]; in the absence of blood serum): 1 µg/mL (≈ 2.04 µM)
MIC [2, 3]: 1.7 µg/mL
SMILES: CC(=O)OCC1=C(C(=O)O)N2C(=O)C(NC(=O)CSc3ccc(Cl)c(Cl)c3)C2SC1 (stereo not shown) [Example 1, 7-(3,4-dichlorophenylthioacetamido)cephalosporanic acid]
